Source: patent publication US8410107B2, “N-pyridin-3-yl or N-pyrazin-2-yl carboxamides” (Hoffmann-La Roche Inc., priority 2010, dated 2013)

Experiments:
ABCA1 protein = assay: Detection of upregulation of ABCA1 protein in cells (ApoA-I binding, high content image analysis); type: cell-based; settings: THP-1 macrophage cells; for % increase of ABCA1 at 3 μM: 24 hrs with compound; for EC50: ABCA1 protein increasing efficacy
Method in brief: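 THP-1 cells differentiated with 100 nM PMA for 68 hrs, loaded with 25 μg/ml acetylated LDL for 24 hours, then exposed to compound (0.5% DMSO) for 24 hrs. Surface ABCA1 measured by binding of AlexaFluor 647-labeled human ApoA-I (20 nM, 2 h, 37 °C) with confocal high-content imaging; EC50 from one-site dose-response fit.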

human CB1 receptor = biological target: T1, human CB1 receptor (Homo sapiens, UniProt P21554); assay: CB1 receptor affinity ([3H]-CP-55,940 displacement, HEK cell membranes); type: binding; settings: displacement of radioligand [3H]-CP-55,940
T1 construct: expressed in transfected cells; host or cells: human embryonic kidney (HEK) cells, Semliki Forest Virus system, membrane preparations
T1 sequence (P21554 whole entry): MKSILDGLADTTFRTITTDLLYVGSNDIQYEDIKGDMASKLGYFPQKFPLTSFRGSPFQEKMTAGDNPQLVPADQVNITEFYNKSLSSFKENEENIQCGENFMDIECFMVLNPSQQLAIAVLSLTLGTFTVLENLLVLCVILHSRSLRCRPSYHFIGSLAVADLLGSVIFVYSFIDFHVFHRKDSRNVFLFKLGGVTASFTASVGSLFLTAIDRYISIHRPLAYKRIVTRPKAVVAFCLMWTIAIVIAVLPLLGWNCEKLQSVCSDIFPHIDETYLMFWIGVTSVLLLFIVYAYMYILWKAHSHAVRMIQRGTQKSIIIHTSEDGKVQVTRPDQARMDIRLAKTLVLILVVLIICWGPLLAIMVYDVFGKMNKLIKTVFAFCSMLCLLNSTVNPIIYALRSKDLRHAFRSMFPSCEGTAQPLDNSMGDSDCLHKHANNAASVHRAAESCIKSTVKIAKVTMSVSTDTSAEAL
Method in brief: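 HEK cell membranes transiently expressing human CB1 (Semliki Forest Virus) incubated with [3H]-CP-55,940 and compound at 10 μM. Bound and free ligand separated by glass-fibre filtration, then scintillation counting. Reported as % inhibition of radioligand binding.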

human CB2 receptor = biological target: T2, human CB2 receptor (Homo sapiens, UniProt P34972); assay: CB2 receptor affinity ([3H]-CP-55,940 displacement, HEK cell membranes); type: binding; settings: displacement of radioligand [3H]-CP-55,940
T2 construct: expressed in transfected cells; host or cells: human embryonic kidney (HEK) cells, Semliki Forest Virus system, membrane preparations
T2 sequence (P34972 whole entry): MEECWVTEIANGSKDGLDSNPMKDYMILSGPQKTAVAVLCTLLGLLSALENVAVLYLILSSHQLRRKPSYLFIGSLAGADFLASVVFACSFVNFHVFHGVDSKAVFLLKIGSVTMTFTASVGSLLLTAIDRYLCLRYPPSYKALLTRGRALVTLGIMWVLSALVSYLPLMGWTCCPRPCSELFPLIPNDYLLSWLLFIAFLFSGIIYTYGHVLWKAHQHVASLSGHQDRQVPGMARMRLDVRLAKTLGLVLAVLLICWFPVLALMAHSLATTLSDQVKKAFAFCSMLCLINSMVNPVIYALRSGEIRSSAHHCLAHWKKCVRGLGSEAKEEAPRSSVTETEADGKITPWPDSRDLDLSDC
Method in brief: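 Membranes from HEK cells transiently expressing human CB2 via Semliki Forest Virus, incubated with [3H]-CP-55,940 ± compound; bound ligand separated by glass-fiber filtration and counted by scintillation. Reported as % inhibition of radioligand binding at 10 μM compound.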

Compound: Cc1cncc(C(=O)Nc2cnc(OCC(F)(F)F)c(-c3ccc(Cl)cc3)c2)c1 [Example 41, N-(5-(4-chlorophenyl)-6-(2,2,2-trifluoroethoxy)pyridin-3-yl)-5-methylnicotin-amide]
- % increase of ABCA1 at 3 μM (ABCA1 protein): >45% @ 3 μM
- inhibition at 10 µM (human CB1 receptor): 31%
- inhibition at 10 µM (human CB2 receptor): 8%

Compound: Cc1ccc(-c2cc(NC(=O)c3cccnc3)cnc2OCC(F)(F)F)cc1C [Example 38, N-(5-(3,4-dimethylphenyl)-6-(2,2,2-trifluoroethoxy)pyridin-3-yl)nicotinamide]
- EC50 (ABCA1 protein): 2.91 µM
- inhibition at 10 µM (human CB1 receptor): 12%
- inhibition at 10 µM (human CB2 receptor): 15%

Compound: O=C(Nc1cnc(OCC(F)(F)F)c(-c2ccc(Cl)cc2)c1)c1ccncn1 [Example 34, 4-pyrimidinecarboxylic acid[5-(4-chloro-phenyl)-6-(2,2,2-trifluoro-ethoxy)-pyridin-3-yl]-amide]
- EC50 (ABCA1 protein): 2.4 µM
- inhibition at 10 µM (human CB1 receptor): 31%
- inhibition at 10 µM (human CB2 receptor): 10%

Compound: O=C(Nc1cnc(OCC(F)(F)F)c(-c2ccc(Cl)cc2)c1)c1ccccc1 [Example 2, N-[5-(4-chloro-phenyl)-6-(2,2,2-trifluoro-ethoxy)-pyridin-3-yl]-benzamide]
- EC50 (ABCA1 protein): 2.69 µM
- inhibition at 10 µM (human CB1 receptor): 33%
- inhibition at 10 µM (human CB2 receptor): 4.9%

Compound: CO/N=C(\C)C(=O)Nc1cnc(OCC(F)(F)F)c(-c2ccc(Cl)cc2)c1 [Example 89, (E)-N-(5-(4-chlorophenyl)-6-(2,2,2-trifluoroethoxy)pyridin-3-yl)-2-(methoxyimino)propanamide]
- EC50 (ABCA1 protein): 3.31 µM
- inhibition at 10 µM (human CB1 receptor): 35%
- inhibition at 10 µM (human CB2 receptor): 5%

Compound: O=C(Nc1cnc(OCC2CC2)c(-c2ccc(Cl)cc2)c1)c1ccncc1 [Example 11, N-[5-(4-chloro-phenyl)-6-cyclopropylmethoxy-pyridin-3-yl]-isonicotinamide]
- % increase of ABCA1 at 3 μM (ABCA1 protein): >45% @ 3 μM
- inhibition at 10 µM (human CB1 receptor): 25%
- inhibition at 10 µM (human CB2 receptor): -1.2%

Compound: Cn1ccc(C(=O)Nc2cnc(OCC(F)(F)F)c(-c3ccc(Cl)cc3)c2)n1 [Example 15, 1-methyl-1H-pyrazole-3-carboxylic acid[5-(4-chloro-phenyl)-6-(2,2,2-trifluoro-ethoxy)-pyridin-3-yl]-amide]
- % increase of ABCA1 at 3 μM (ABCA1 protein): >45% @ 3 μM
- inhibition at 10 µM (human CB1 receptor): 27%
- inhibition at 10 µM (human CB2 receptor): 2%

Compound: O=C(Nc1cnc(OCC(F)(F)F)c(-c2ccc(Cl)cc2)c1)c1ccns1 [Example 22, 5-isothiazolecarboxylic acid[5-(4-chloro-phenyl)-6-(2,2,2-trifluoro-ethoxy)-pyridin-3-yl]-amide]
- % increase of ABCA1 at 3 μM (ABCA1 protein): >45% @ 3 μM
- inhibition at 10 µM (human CB1 receptor): 45%
- inhibition at 10 µM (human CB2 receptor): 8%

Compound: O=C(Nc1cnc(OCC2CC2)c(-c2ccc(Cl)cc2)c1)c1cccnc1 [Example 10, N-[5-(4-chloro-phenyl)-6-cyclopropylmethoxy-pyridin-3-yl]-nicotinamide]
- EC50 (ABCA1 protein): 6.51 µM
- inhibition at 10 µM (human CB1 receptor): 36%
- inhibition at 10 µM (human CB2 receptor): 28%

Compound: CN1CCOc2cc(C(=O)Nc3cnc(OCC(F)(F)F)c(-c4ccc(Cl)c(F)c4)c3)cnc21 [Example 81, N-(5-(4-chloro-3-fluorophenyl)-6-(2,2,2-trifluoroethoxy)pyridin-3-yl)-4-methyl-3,4-dihydro-2H-pyrido[3,2-b][1,4]oxazine-7-carboxamide]
- EC50 (ABCA1 protein): 2.56 µM
- inhibition at 10 µM (human CB1 receptor): 21%
- inhibition at 10 µM (human CB2 receptor): 5%

Compound: O=C(Nc1cnc(OCC(F)(F)F)c(-c2ccc(Cl)cc2)c1)c1ccccn1 [Example 7, pyridine-2-carboxylic acid[5-(4-chloro-phenyl)-6-(2,2,2-trifluoro-ethoxy)-pyridin-3-yl]-amide]
- % increase of ABCA1 at 3 μM (ABCA1 protein): >45% @ 3 μM
- inhibition at 10 µM (human CB1 receptor): 13%
- inhibition at 10 µM (human CB2 receptor): 1.2%

Compound: Cc1cc(-c2cc(NC(=O)c3cccnc3)cnc2OCC(F)(F)F)ccc1Cl [Example 39, N-(5-(4-chloro-3-methylphenyl)-6-(2,2,2-trifluoroethoxy)pyridin-3-yl)nicotin-amide]
- EC50 (ABCA1 protein): 2.23 µM
- inhibition at 10 µM (human CB1 receptor): 19%
- inhibition at 10 µM (human CB2 receptor): 16%

Compound: Cc1cc(-c2cc(NC(=O)c3ccnc(O)c3)cnc2OCC(F)(F)F)ccc1Cl [Example 57, N-(5-(4-chloro-3-methylphenyl)-6-(2,2,2-trifluoroethoxy)pyridin-3-yl)-2-hydroxyisonicotinamide]
- % increase of ABCA1 at 3 μM (ABCA1 protein): >45% @ 3 μM
- inhibition at 10 µM (human CB1 receptor): 0%
- inhibition at 10 µM (human CB2 receptor): -18%

Compound: Cc1cc(-c2cc(NC(=O)c3cn(C)nc3C)cnc2OCC(F)(F)F)ccc1Cl [Example 58, N-(5-(4-chloro-3-methylphenyl)-6-(2,2,2-trifluoroethoxy)pyridin-3-yl)-1,3-dimethyl-1H-pyrazole-4-carboxamide]
- EC50 (ABCA1 protein): 2.2 µM
- inhibition at 10 µM (human CB1 receptor): 3%
- inhibition at 10 µM (human CB2 receptor): -13%

Compound: O=C(Nc1cnc(OCC(F)(F)F)c(-c2ccc(Cl)cc2)c1)[C@H]1CCOC1 (racemic) [Example 71, (SR)-N-(5-(4-chlorophenyl)-6-(2,2,2-trifluoroethoxy)pyridin-3-yl)-tetrahydrofuran-3-carboxamide]
- % increase of ABCA1 at 3 μM (ABCA1 protein): >45% @ 3 μM
- inhibition at 10 µM (human CB1 receptor): 41%
- inhibition at 10 µM (human CB2 receptor): 4%

Compound: O=C(Nc1cnc(OCC(F)(F)F)c(-c2ccc(Cl)cc2)c1)c1cncc(Br)c1 [Example 85, 5-bromo-N-(5-(4-chlorophenyl)-6-(2,2,2-trifluoroethoxy)pyridin-3-yl)nicotinamide]
- % increase of ABCA1 at 3 μM (ABCA1 protein): >45% @ 3 μM
- inhibition at 10 µM (human CB1 receptor): 38%
- inhibition at 10 µM (human CB2 receptor): 5%

Compound: Cc1nc(C)c(C(=O)Nc2cnc(OCC(F)(F)F)c(-c3ccc(Cl)cc3)c2)o1 [Example 21, 2,4-dimethyl-5-oxazolecarboxylic acid[5-(4-chloro-phenyl)-6-(2,2,2-trifluoro-ethoxy)-pyridin-3-yl]-amide]
- EC50 (ABCA1 protein): 1.37 µM
- inhibition at 10 µM (human CB1 receptor): 29%
- inhibition at 10 µM (human CB2 receptor): 1%

Compound: O=C(Nc1cnc(OCC(F)(F)F)c(-c2ccccc2)c1)c1cccnc1 [Example 74, N-(5-phenyl-6-(2,2,2-trifluoroethoxy)pyridin-3-yl)nicotinamide]
- % increase of ABCA1 at 3 μM (ABCA1 protein): >45% @ 3 μM
- inhibition at 10 µM (human CB1 receptor): 17%
- inhibition at 10 µM (human CB2 receptor): -7%

Compound: Cc1cc(-c2cc(NC(=O)c3cccnn3)cnc2OCC(F)(F)F)ccc1Cl [Example 62, N-(5-(4-chloro-3-methylphenyl)-6-(2,2,2-trifluoroethoxy)pyridin-3-yl)pyridazine-3-carboxamide]
- EC50 (ABCA1 protein): 2.39 µM
- inhibition at 10 µM (human CB1 receptor): -4%
- inhibition at 10 µM (human CB2 receptor): 4%

Compound: O=C(Nc1cnc(OCC(F)(F)F)c(-c2ccc(F)c(Cl)c2)c1)c1cncnc1 [Example 54, N-(5-(3-chloro-4-fluorophenyl)-6-(2,2,2-trifluoroethoxy)pyridin-3-yl)pyrimidine-5-carboxamide]
- % increase of ABCA1 at 3 μM (ABCA1 protein): >45% @ 3 μM
- inhibition at 10 µM (human CB1 receptor): 21%
- inhibition at 10 µM (human CB2 receptor): 10%

Compound: O=C(Nc1cnc(OCC(F)(F)F)c(-c2ccc(Cl)cc2)c1)c1cncnc1 [Example 19, 5-pyrimidinecarboxylic acid[5-(4-chloro-phenyl)-6-(2,2,2-trifluoro-ethoxy)-pyridin-3-yl]-amide]
- EC50 (ABCA1 protein): 1.39 µM
- inhibition at 10 µM (human CB1 receptor): 25%
- inhibition at 10 µM (human CB2 receptor): -10%

Compound: O=C(Nc1cnc(OCC(F)(F)F)c(-c2ccc(F)cc2)c1)c1cccnc1 [Example 75, N-(5-(4-fluorophenyl)-6-(2,2,2-trifluoroethoxy)pyridin-3-yl)nicotinamide]
- % increase of ABCA1 at 3 μM (ABCA1 protein): >45% @ 3 μM
- inhibition at 10 µM (human CB1 receptor): 31%
- inhibition at 10 µM (human CB2 receptor): 5%

Compound: O=C(Nc1cnc(OCC(F)(F)F)c(-c2ccc(Cl)cc2)c1)c1cccnn1 [Example 17, 3-pyridazinecarboxylic acid[5-(4-chloro-phenyl)-6-(2,2,2-trifluoro-ethoxy)-pyridin-3-yl]-amide]
- EC50 (ABCA1 protein): 2.31 µM
- inhibition at 10 µM (human CB1 receptor): 16%
- inhibition at 10 µM (human CB2 receptor): -3%

Compound: Cc1cc(-c2cc(NC(=O)c3cnc4c(c3)OCCN4C)cnc2OCC(F)(F)F)ccc1Cl [Example 80, N-(5-(4-chloro-3-methylphenyl)-6-(2,2,2-trifluoroethoxy)pyridin-3-yl)-4-methyl-3,4-dihydro-2H-pyrido[3,2-b][1,4]oxazine-7-carboxamide]
- % increase of ABCA1 at 3 μM (ABCA1 protein): >45% @ 3 μM
- inhibition at 10 µM (human CB1 receptor): 16%
- inhibition at 10 µM (human CB2 receptor): 14%

Compound: O=C(Nc1cnc(OCC(F)(F)F)c(-c2ccc(Cl)cc2F)c1)c1cccnc1 [Example 46, N-(5-(4-chloro-2-fluorophenyl)-6-(2,2,2-trifluoroethoxy)pyridin-3-yl)nicotin-amide]
- % increase of ABCA1 at 3 μM (ABCA1 protein): >45% @ 3 μM
- inhibition at 10 µM (human CB1 receptor): 40%
- inhibition at 10 µM (human CB2 receptor): -1%

Compound: CNC(=O)c1ccc(C(=O)Nc2cnc(OCC(F)(F)F)c(-c3ccc(Cl)cc3)c2)cn1 [Example 84, N5-(5-(4-chlorophenyl)-6-(2,2,2-trifluoroethoxy)pyridin-3-yl)-N2-methylpyridine-2,5-dicarboxamide]
- % increase of ABCA1 at 3 μM (ABCA1 protein): >45% @ 3 μM
- inhibition at 10 µM (human CB1 receptor): 23%
- inhibition at 10 µM (human CB2 receptor): 3%
